In patent publication US20230135729A1, “COMPOUND WITH ANTI-SPORE ACTIVITY AND PHARMACEUTICAL COMPOSITION THEREOF” (priority 2020, published 2023) one finds MIC data, which are given here for 26 compounds.

Common to all, as to assay type: cell-based
The test system of assay [1] is spores of ATCC BBA1870 strain. As to the kind of experiment: Inhibition of germination of C. difficile spores (MIC), strain ATCC BBA1870. The conditions noted are these: Clostridioides difficile, ATCCBBA1870STRAIN, 1 h, read-out: MIC (minimum concentration that completely inhibits spore germination). The method, boiled down:
(§1)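 Germination was followed as the drop in OD580 over 60 min at 37° C in BHIS after adding sodium taurocholate to spores premixed with compound. Spores were first heat-activated (65° C, 30 min) and washed free of self-germinating spores. The inhibition rate was calculated against germinant and non-germinant controls.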

Assay [2] deals with spores of ATCC 43255 strain. Description: Inhibition of germination of C. difficile spores (MIC), strain ATCC 43255. The conditions noted are these: Clostridioides difficile, ATCC43255, 1 h, read-out: MIC (minimum concentration that completely inhibits spore germination). A digest of the protocol:
as §1

Assay [3] concerns spores of ATCC 630 strain. As to the kind of experiment: Inhibition of germination of C. difficile spores (MIC), strain ATCC 630. The note with it: Clostridioides difficile, ATCC630, 1 h, read-out: MIC (minimum concentration that completely inhibits spore germination). The method, boiled down: as §1
Where [4] appears, read: strain 1870, sodium taurocholate as germinant, BHIS medium, 37° C., OD580 for 60 min.
[5] abbreviates: strain 43255, sodium taurocholate as germinant, BHIS medium, 37° C., OD580 for 60 min.
Setting [6] is: strain 630, sodium taurocholate as germinant, BHIS medium, 37° C., OD580 for 60 min.

SMILES strings stand for the structures. Values after ≈ are worked out from the molar mass of the structure shown. Like-named read-outs stand apart in the source and are kept apart here.

With `C[C@H](CC(=O)NC(c1cccs1)c1cccs1)[C@H]1CC[C@H]2[C@@H]3C(=O)C[C@@H]4CC(=O)CC[C@]4(C)[C@H]3CC[C@]12C` [Compound I-56], the MIC in assay [1] (setting [4]), in assay [2] (setting [5]) and in assay [3] (setting [6]) was 16 µM (≈ 8.83 µg/mL) throughout.
As to `CC(C)[C@@H](NC(=O)C[C@@H](C)[C@H]1CC[C@H]2[C@@H]3[C@H](O)C[C@@H]4C[C@H](O)CC[C@]4(C)[C@H]3C[C@H](O)[C@]12C)c1ccc(Cl)s1` [Compound I-146], the MIC in assay [1] (setting [4]), in assay [2] (setting [5]) and in assay [3] (setting [6]) was 16 µM (≈ 9.06 µg/mL) throughout.
Regarding `CCC(NC(=O)C[C@@H](C)[C@H]1CC[C@H]2[C@@H]3C(=O)C[C@@H]4CC(=O)CC[C@]4(C)[C@H]3CC[C@]12C)c1ccccc1` (stereo partly drawn) [Compound I-58], the MIC in assay [1] was 8 µM (≈ 3.93 µg/mL); in assay [2] it was 4 µM (≈ 1.97 µg/mL); in assay [3], 4 µM (≈ 1.97 µg/mL).
As for `C[C@H](CC(=O)NCc1cccnc1)[C@H]1CC[C@H]2[C@@H]3[C@H](O)C[C@@H]4C[C@H](O)CC[C@]4(C)[C@H]3CC[C@]12C` [Compound I-5], the MIC in assay [1] (setting [4]) was 16 µM (≈ 7.5 µg/mL); in assay [2] (setting [5]) it was 16 µM (≈ 7.5 µg/mL); in assay [3] (setting [6]), 32 µM (≈ 15 µg/mL).
With `CC(C)[C@@H](NC(=O)C[C@@H](C)[C@H]1CC[C@H]2[C@@H]3[C@H](O)CC4=CC(=O)C=C[C@]4(C)[C@H]3CC[C@]12C)c1ccc(Cl)s1` [Compound I-162-2], the MIC in assay [1] (setting [4]), in assay [2] (setting [5]) and in assay [3] (setting [6]) was 0.5 µM (≈ 0.272 µg/mL) in each case.
Consider `CC[C@H](NC(=O)C[C@@H](C)[C@H]1CC[C@H]2[C@@H]3[C@H](O)C[C@@H]4CC(=O)CC[C@]4(C)[C@H]3CC[C@]12C)c1ccc(Cl)s1` [Compound I-87], for which the MIC was 256 µM (≈ 137 µg/mL) in assay [1] (setting [4]), 128 µM (≈ 68.4 µg/mL) in assay [2] (setting [5]) and 128 µM (≈ 68.4 µg/mL) in assay [3] (setting [6]).
In the case of `CC[C@@H](NC(=O)C[C@@H](C)[C@H]1CC[C@H]2[C@@H]3[C@H](O)CC4=CC(=O)CC[C@]4(C)[C@H]3CC[C@]12C)c1ccc(Br)s1` [Compound I-155-2], the MIC in assay [1] (setting [4]), in assay [2] (setting [5]) and in assay [3] (setting [6]) was 0.25 µM (≈ 0.144 µg/mL) in each case.
Regarding `CC(=O)O[C@@H]1CC2=CC(=O)C=C[C@]2(C)[C@H]2CC[C@]3(C)[C@@H]([C@H](C)CC(=O)N[C@@H](c4ccc(Br)s4)C(C)C)CC[C@H]3[C@H]12` [I-160 -1], the MIC in assay [1] (setting [4]), in assay [2] (setting [5]) and in assay [3] (setting [6]) was 0.5 µM (≈ 0.315 µg/mL) in each case.
As for `C[C@H](CC(=O)NCc1cccs1)[C@H]1CC[C@H]2[C@@H]3C(=O)C[C@@H]4C[C@H](O)CC[C@]4(C)[C@H]3CC[C@]12C` [Compound I-14], the MIC in assay [1] (setting [4]), in assay [2] (setting [5]) and in assay [3] (setting [6]) was 4 µM (≈ 1.89 µg/mL) in each case.
On to `CC(C)[C@@H](NC(=O)C[C@@H](C)[C@H]1CC[C@H]2[C@@H]3[C@H](O)C[C@@H]4CC(=O)CC[C@]4(C)[C@H]3CC[C@]12C)c1cccs1` [Compound I-136], for which the MIC in assay [1] (setting [4]), in assay [2] (setting [5]) and in assay [3] (setting [6]) was 1 µM (≈ 0.514 µg/mL) each time.
Regarding `CC(=O)O[C@@H]1CC2=CC(=O)CC[C@]2(C)[C@H]2CC[C@]3(C)[C@@H]([C@H](C)CC(=O)N[C@@H](c4ccc(Cl)s4)C(C)C)CC[C@H]3[C@H]12` [I-158 -1], the MIC in assay [1] (setting [4]), in assay [2] (setting [5]) and in assay [3] (setting [6]) was 0.5 µM (≈ 0.294 µg/mL) each time.
`CCC(NC(=O)C[C@@H](C)[C@H]1CC[C@H]2[C@@H]3C[C@H](O)[C@@H]4C[C@H](O)CC[C@]4(C)[C@H]3CC[C@]12C)c1cccs1` (stereo partly drawn) [Compound I-125]: the MIC in assay [1] (setting [4]), in assay [2] (setting [5]) and in assay [3] (setting [6]) was 2 µM (≈ 1 µg/mL) throughout.
Turning to `CC[C@@H](NC(=O)C[C@@H](C)[C@H]1CC[C@H]2[C@@H]3[C@H](O)C[C@@H]4C[C@@H](O)CC[C@]4(C)[C@H]3CC[C@]12C)c1ccc(Br)s1` [Compound I-143], the figures for the MIC in assay [1] (setting [4]), in assay [2] (setting [5]) and in assay [3] (setting [6]) were 8 µM (≈ 4.65 µg/mL), 4 µM (≈ 2.32 µg/mL) and 4 µM (≈ 2.32 µg/mL), respectively.
With `CC[C@@H](NC(=O)C[C@@H](C)[C@H]1CC[C@H]2[C@@H]3[C@@H](O)C[C@@H]4C[C@H](O)CC[C@]4(C)[C@H]3CC[C@]12C)c1ccc(Cl)s1` [Compound I-141], the MIC in assay [1] (setting [4]), in assay [2] (setting [5]) and in assay [3] (setting [6]) was 32 µM (≈ 17.2 µg/mL) each time.
As to `CO[C@@H]1CC[C@@]2(C)[C@@H](C1)C[C@@H](O)[C@@H]1[C@@H]2CC[C@]2(C)[C@@H]([C@H](C)CC(=O)N[C@@H](c3ccc(Cl)s3)C(C)C)CC[C@@H]12` [Compound I-170], the MIC in assay [1] (setting [4]), in assay [2] (setting [5]) and in assay [3] (setting [6]) was 128 µM (≈ 72.2 µg/mL) throughout.
For `CCCCCCCC(NC(=O)C[C@@H](C)[C@H]1CC[C@H]2[C@@H]3C(=O)C[C@@H]4CC(=O)CC[C@]4(C)[C@H]3CC[C@]12C)c1cccs1` (stereo partly drawn) [Compound I-45], the MIC in assay [1] (setting [4]), in assay [2] (setting [5]) and in assay [3] (setting [6]) was > 256 µM in each case.
Regarding `CC(C)[C@@H](NC(=O)C[C@@H](C)[C@H]1CC[C@H]2[C@@H]3C(=O)C[C@@H]4C[C@H](O)CC[C@]4(C)[C@H]3CC[C@]12C)c1ccc(Cl)s1` [Compound I-150], the MIC in assay [1] (setting [4]) is 2 µM (≈ 1.1 µg/mL); in assay [2] (setting [5]), 2 µM (≈ 1.1 µg/mL); in assay [3] (setting [6]), 1 µM (≈ 0.548 µg/mL).
As for `CC[C@@H](NC(=O)C[C@@H](C)[C@H]1CC[C@H]2[C@@H]3[C@H](OP(=O)(O)O)C[C@@H]4CC(=O)CC[C@]4(C)[C@H]3CC[C@]12C)c1ccc(Cl)s1` [Compound I-191], the MIC in assay [1] (setting [4]), in assay [2] (setting [5]) and in assay [3] (setting [6]) was 64 µM (≈ 39.3 µg/mL) in each case.
Turning to `C[C@H](CC(=O)NCc1cccs1)[C@H]1CC[C@H]2[C@@H]3C(=O)C[C@@H]4C[C@H](O)CC[C@]4(C)[C@H]3C[C@H](O)[C@]12C` [Compound I-20], the MIC in assay [1] (setting [4]) was determined as 64 µM (≈ 31.2 µg/mL); in assay [2] (setting [5]), 32 µM (≈ 15.6 µg/mL); in assay [3] (setting [6]) it was 32 µM (≈ 15.6 µg/mL).
As to `CCCCCCCC(=O)O[C@@H]1C[C@@H]2CC(=O)CC[C@]2(C)[C@H]2CC[C@]3(C)[C@@H]([C@H](C)CC(=O)N[C@@H](c4ccc(Cl)s4)C(C)C)CC[C@H]3[C@H]12` [Compound I-185], the MIC in assay [1] (setting [4]), in assay [2] (setting [5]) and in assay [3] (setting [6]) was 128 µM (≈ 86.3 µg/mL) in each case.
As for `CC[C@@H](NC(=O)C[C@@H](C)[C@H]1CC[C@H]2[C@@H]3[C@H](OP(=O)(O)O)C[C@@H]4CC(=O)CC[C@]4(C)[C@H]3CC[C@]12C)c1ccc(Br)s1` [Compound I-192], the MIC in assay [1] (setting [4]), in assay [2] (setting [5]) and in assay [3] (setting [6]) was 64 µM (≈ 42.2 µg/mL) each time.
With `CC(NC(=O)C[C@@H](C)[C@H]1CC[C@H]2[C@@H]3C(=O)C[C@@H]4CC(=O)CC[C@]4(C)[C@H]3CC[C@]12C)c1ccc(Br)s1` (stereo partly drawn) [Compound I-33], the values for the MIC in assay [1] (setting [4]), in assay [2] (setting [5]) and in assay [3] (setting [6]) were 0.5 µM (≈ 0.281 µg/mL), 1 µM (≈ 0.563 µg/mL) and 0.5 µM (≈ 0.281 µg/mL), respectively.
As to `CC[C@@H](NC(=O)C[C@@H](C)[C@H]1CC[C@H]2[C@@H]3[C@H](OC(C)=O)CC4=CC(=O)CC[C@]4(C)[C@H]3CC[C@]12C)c1ccc(Cl)s1` [I-157 -1], the results for the MIC in assay [1] (setting [4]), in assay [2] (setting [5]) and in assay [3] (setting [6]) were 0.5 µM (≈ 0.287 µg/mL), 0.5 µM (≈ 0.287 µg/mL) and 0.25 µM (≈ 0.144 µg/mL), respectively.
As for `CC[C@@H](NC(=O)C[C@@H](C)[C@H]1CC[C@H]2[C@@H]3[C@H](O)C[C@@H]4CC(=O)CC[C@]4(C)[C@H]3C[C@H](O)[C@]12C)c1ccc(Br)s1` [Compound I-165], the MIC in assay [1] (setting [4]) came to 64 µM (≈ 38.1 µg/mL); in assay [2] (setting [5]) it was 64 µM (≈ 38.1 µg/mL); in assay [3] (setting [6]), 32 µM (≈ 19 µg/mL).
Take `CC(C)[C@@H](NC(=O)C[C@@H](C)[C@H]1CC[C@H]2[C@@H]3[C@H](OP(=O)(O)O)C[C@@H]4CC(=O)CC[C@]4(C)[C@H]3CC[C@]12C)c1ccc(Cl)s1` [Compound I-193]: the MIC in assay [1] (setting [4]), in assay [2] (setting [5]) and in assay [3] (setting [6]) was 64 µM (≈ 40.2 µg/mL) throughout.
Take `C[C@H](CC(=O)NCc1cccs1)[C@H]1CC[C@H]2[C@@H]3[C@H](O)C[C@@H]4C[C@H](O)CC[C@]4(C)[C@H]3C[C@H](O)[C@]12C` [Compound I-18]: the MIC in assay [1] (setting [4]) was found to be 32 µM (≈ 15.7 µg/mL); in assay [2] (setting [5]), 8 µM (≈ 3.92 µg/mL); in assay [3] (setting [6]), 8 µM (≈ 3.92 µg/mL).
